According to ChEMBL document CHEMBL5543066, “Dual COX-2/15-LOX inhibitors: A new avenue in the prevention of cancer” (Eur J Med Chem, 2023):
Blank lines part the entries; values can stand above or below the molecule they belong to.

Experiments:
MCF7 = experiment: Antitumor activity against human MCF7 cells assessed as reduction in cell viability measured for 72 hrs by MTT assay; assay type: functional, cell-based; conditions: MCF7, 72 h
HepG2 = experiment: Anticancer activity against human HepG2 cells assessed as cell viability measured after 72 hrs by MTT assay; assay type: functional, cell-based; conditions: HepG2, 72 h
A549 = experiment: Anticancer activity against human A549 cells assessed as reduction in cell viability measured for 72 hrs by MTT assay; assay type: functional, cell-based; conditions: A549, 72 h
Caco-2 = experiment: Antiproliferative activity against human Caco-2 cells assessed as reduction in cell growth incubated for 72 hrs by MTT assay; assay type: functional, cell-based; conditions: Caco-2, 72 h
PC-3 = experiment: Antiproliferative activity against human PC-3 cells assessed as reduction in cell growth incubated for 72 hrs by MTT assay; assay type: functional, cell-based; conditions: PC-3, 72 h
[1] = target: T1, Prostaglandin G/H synthase 2 (Homo sapiens, UniProt P35354); experiment: Inhibition of COX-2 (unknown origin) by Enzyme immune assay
T1 sequence (P35354 whole entry): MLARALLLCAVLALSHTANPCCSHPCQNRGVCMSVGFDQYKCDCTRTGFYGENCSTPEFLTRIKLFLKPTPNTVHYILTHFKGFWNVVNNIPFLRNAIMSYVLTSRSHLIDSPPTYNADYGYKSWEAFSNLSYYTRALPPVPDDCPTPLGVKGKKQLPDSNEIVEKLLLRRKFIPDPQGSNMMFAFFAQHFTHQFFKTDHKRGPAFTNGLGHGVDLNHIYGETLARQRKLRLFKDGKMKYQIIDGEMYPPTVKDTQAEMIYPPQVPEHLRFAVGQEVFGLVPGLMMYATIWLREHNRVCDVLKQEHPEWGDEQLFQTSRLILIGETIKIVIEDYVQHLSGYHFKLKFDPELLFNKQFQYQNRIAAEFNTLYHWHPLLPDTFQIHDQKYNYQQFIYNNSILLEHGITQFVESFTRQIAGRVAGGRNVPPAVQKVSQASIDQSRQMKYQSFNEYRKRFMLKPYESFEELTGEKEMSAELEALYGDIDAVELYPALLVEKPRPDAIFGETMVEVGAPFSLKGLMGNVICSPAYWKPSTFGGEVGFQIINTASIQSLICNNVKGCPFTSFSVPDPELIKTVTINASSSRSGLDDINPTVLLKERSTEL

[2] = Inhibition of soybean 15-LOX; design: species or system Glycine max
[3] = Inhibition of soybean 15-LOX colorimetric assay; design: species or system Glycine max
Rattus norvegicus = experiment: Anti-inflammatory activity against carrageenan-induced paw edema in Wistar albino rat assessed as inhibition of paw edema at 50 mg/kg, sc administered for 14 days relative to control; assay type: functional; design: scale not given: the % may be the effect or the level left; conditions: time 14 day
[4] = Inhibition of soybean 15-LOX by chemiluminescence based analysis; design: species or system Glycine max
[5] = Inhibition of human recombinant sPLA2-V
[6] = Inhibition of soybean 15-LOX by spectrophotometric method; design: species or system Glycine max
[7] = Inhibition of soybean lipoxygenase; design: species or system Glycine max
[8] = target: T1, Prostaglandin G/H synthase 2; experiment: Inhibition of COX-2 (unknown origin)
[9] = target: T1, Prostaglandin G/H synthase 2; experiment: Inhibition of human recombinant COX-2
[10] = target: T2, Seed linoleate 13S-lipoxygenase-1 (Glycine max, UniProt P08170); experiment: Inhibition of soybean LOX-1 using linoleic acid as substrate
T2 sequence (P08170 whole entry): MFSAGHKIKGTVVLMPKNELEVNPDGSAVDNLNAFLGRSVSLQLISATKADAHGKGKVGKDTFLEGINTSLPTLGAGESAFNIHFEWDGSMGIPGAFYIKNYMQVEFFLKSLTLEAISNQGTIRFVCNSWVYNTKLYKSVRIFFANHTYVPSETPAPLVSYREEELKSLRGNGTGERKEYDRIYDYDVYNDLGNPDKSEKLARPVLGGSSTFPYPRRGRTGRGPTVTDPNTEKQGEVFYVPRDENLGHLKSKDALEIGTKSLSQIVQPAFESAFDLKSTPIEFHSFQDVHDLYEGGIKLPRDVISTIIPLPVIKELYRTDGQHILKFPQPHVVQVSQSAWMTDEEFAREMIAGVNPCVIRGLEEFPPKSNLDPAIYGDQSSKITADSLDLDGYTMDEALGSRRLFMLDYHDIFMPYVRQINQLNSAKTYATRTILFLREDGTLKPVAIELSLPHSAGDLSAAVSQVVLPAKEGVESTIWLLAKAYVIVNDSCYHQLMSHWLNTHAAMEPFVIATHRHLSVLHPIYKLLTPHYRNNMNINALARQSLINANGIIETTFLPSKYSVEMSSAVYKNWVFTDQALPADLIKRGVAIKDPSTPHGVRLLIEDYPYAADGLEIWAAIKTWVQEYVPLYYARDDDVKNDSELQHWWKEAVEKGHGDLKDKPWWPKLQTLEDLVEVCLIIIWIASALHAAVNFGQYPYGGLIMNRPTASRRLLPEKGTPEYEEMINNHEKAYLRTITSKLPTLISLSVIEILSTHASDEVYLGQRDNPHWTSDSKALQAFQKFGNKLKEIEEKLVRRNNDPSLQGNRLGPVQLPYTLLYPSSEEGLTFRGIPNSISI

Mononuclear cell line = experiment: Induction of apoptosis in human Mononuclear cell line assessed as early apoptosis at 10 uM incubated for 48 hrs by AnnexinV-FITC/PI staining based flow cytometry relative to control; assay type: functional
[11] = target: Prostaglandin G/H synthase 1 (Homo sapiens) (UniProt P23219); experiment: Inhibition of human COX-1 at 10 uM relative to control
Sequence of Prostaglandin G/H synthase 1 (Homo sapiens) (P23219 whole entry): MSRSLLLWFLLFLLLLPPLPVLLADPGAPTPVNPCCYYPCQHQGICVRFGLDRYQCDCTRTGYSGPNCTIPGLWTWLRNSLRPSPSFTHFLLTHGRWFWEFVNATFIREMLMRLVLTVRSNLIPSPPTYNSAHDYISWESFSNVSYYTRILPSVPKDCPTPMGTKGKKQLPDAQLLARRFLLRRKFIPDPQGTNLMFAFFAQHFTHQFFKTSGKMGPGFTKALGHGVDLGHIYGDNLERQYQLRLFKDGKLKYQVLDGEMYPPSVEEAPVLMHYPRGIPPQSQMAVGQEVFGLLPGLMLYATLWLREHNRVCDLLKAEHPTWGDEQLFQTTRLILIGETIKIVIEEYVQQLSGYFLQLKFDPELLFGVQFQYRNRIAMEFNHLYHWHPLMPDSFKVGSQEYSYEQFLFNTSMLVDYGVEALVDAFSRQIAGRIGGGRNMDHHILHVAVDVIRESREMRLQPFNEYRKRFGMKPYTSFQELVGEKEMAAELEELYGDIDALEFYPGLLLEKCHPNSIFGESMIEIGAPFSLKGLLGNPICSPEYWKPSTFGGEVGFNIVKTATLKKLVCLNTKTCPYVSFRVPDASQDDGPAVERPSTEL

Compound: Cc1cccc(Nc2ccccc2C(=O)O)c1C [MEFENAMIC ACID]
- IC50 [2]: 24.8 µM

Compound: CCOc1cc(N)n2nc(Nc3cc(OC)ccn3)c(C#N)c2n1
- Activity (Rattus norvegicus): 46%

Compound: CCCNC(=O)CSc1nnc(C2CCN(C(=O)Nc3ccccc3)CC2)o1
- IC50 [4]: 9.32 µM

Compound: CC(c1cc2ccccc2s1)N(O)C(N)=O (stereo not given) [ZILEUTON]
- IC50 [2]: 15 µM

Compound: O=C(O)Cc1ccccc1Nc1c(Cl)cccc1Cl [DICLOFENAC]
- IC50 [2]: 24.8 µM

Compound: O=C(CSc1nnc(C2CCN(C(=O)Nc3ccccc3)CC2)o1)Nc1ccccc1
- IC50 [4]: 26.1 µM

Compound: C=CCc1cc(NC(=O)C23CC4CC(CC(C4)C2)C3)ccc1OC(C)C
- IC50 [2]: 1.35 µM

Compound: CC(=O)Oc1ccccc1C(=O)O [ASPIRIN]
- IC50 [2]: 4.62 µM

Compound: Cc1ccc(Cl)c(Nc2ccccc2C(=O)O)c1Cl [MECLOFENAMATE SODIUM]
- IC50 [1]: 0.00564 µM

Compound: CC(C(=O)O)c1cccc(C(=O)c2ccccc2)c1 (stereo not given) [KETOPROFEN]
- IC50 [2]: 24.8 µM

Compound: CCc1ccccc1NC(=O)CSc1nnc(C2CCN(C(=O)Nc3ccccc3)CC2)o1
- IC50 [4]: 7.15 µM

Compound: CC(=O)c1cc2ccc(OC/C=C(\C)CC/C=C(\C)CCC=C(C)C)cc2oc1=O
- IC50 [10]: 0.68 µM

Compound: Cc1cccc(C)c1NC(=O)CSc1nnc(C2CCN(C(=O)Nc3ccccc3)CC2)o1
- IC50 [4]: 18.4 µM

Compound: Cc1cccc(NC(=O)CSc2nnc(C3CCN(C(=O)Nc4ccccc4)CC3)o2)c1
- IC50 [4]: 26.1 µM

Compound: O=c1cc(-c2ccccc2)oc2cc(O)c(O)c(O)c12 [BAICALEIN]
- IC50 [2]: 22.5 µM

Compound: CN1C(C(=O)Nc2ccccn2)=C(O)c2ccccc2S1(=O)=O [PIROXICAM]
- IC50 [2]: 62.6 µM

Compound: CN1C(C(=O)Nc2ccccn2)=C(O)c2sccc2S1(=O)=O [TENOXICAM]
- IC50 [2]: 49.5 µM

Compound: CC(=O)Nc1ccc(O)cc1 [ACETAMINOPHEN]
- IC50 [2]: 6.52 µM

Compound: Cc1cc(C)cc(NC(=O)CSc2nnc(C3CCN(C(=O)Nc4ccccc4)CC3)o2)c1
- Activity (Mononuclear cell line): 79.5%
- IC50 [4]: 26.1 µM

Compound: O=C(CSc1nnc(C2CCN(C(=O)Nc3ccccc3)CC2)o1)NC1CCCCC1
- IC50 [4]: 26.1 µM

Compound: O=c1c(O)c(-c2ccc(O)c(O)c2)oc2cc(O)cc(O)c12 [QUERCETIN]
- IC50 [2]: 4.84 µM
- Activity (Mononuclear cell line): 4.26%

Compound: CCN(CC)C(=O)CSc1nnc(C2CCN(C(=O)Nc3ccccc3)CC2)o1
- Activity (Mononuclear cell line): 79.5%
- IC50 [4]: 15.8 µM

Compound: CC(Cc1ccc(O)c(O)c1)C(C)Cc1ccc(O)c(O)c1 (stereo not given) [NORDIHYDROGUAIARETIC ACID]
- IC50 [3]: 8.5 µM

More lines, main results first:

- IC50 (MCF7): 18.5 µM
- IC50 (HepG2): 18.5 µM
- IC50 (A549): 18.5 µM
- IC50 (Caco-2): 18.5 µM
- IC50 (PC-3): 18.5 µM
Compound: CCn1c(-n2cc(/C=N/N=C3\SCC(=O)N3c3ccccc3)c(-c3ccccc3)n2)nc2c1c(=O)n(C)c(=O)n2C

- IC50 [1]: 0.0064 µM
Compound: COc1ccc2cc(C(C)C(=O)O/N=C(\N)c3ccc(OC)c(OC)c3)ccc2c1 (stereo not given)

- IC50 [1]: 0.0064 µM
Compound: COc1ccc2cc(C(C)C(=O)ON=C(N)c3ccc4c(c3)OCO4)ccc2c1 (stereo not given)

- IC50 [3]: 5.6 µM
Compound: COc1ccnc(Nc2nn3c(C)cc(C)nc3c2C#N)c1
- Activity (Rattus norvegicus): 46%

- IC50 [1]: 0.0064 µM
Compound: COc1ccc(/C(N)=N/OC(=O)C(C)c2ccc3cc(OC)ccc3c2)cc1 (stereo not given)

- IC50 [2]: 21.5 µM
Compound: Cc1ccc(OCc2nnc(SCC(=O)Nc3ccccc3)o2)cc1

- IC50 [4]: 26.1 µM
Compound: CCc1ccc(NC(=O)CSc2nnc(C3CCN(C(=O)Nc4ccccc4)CC3)o2)cc1

- IC50 [2]: 3.52 µM
Compound: COc1ccc2cc([C@H](C)C(=O)O)ccc2c1 [NAPROXEN]

- IC50 (MCF7): 18.5 µM
- IC50 (HepG2): 18.5 µM
- IC50 (A549): 18.5 µM
- IC50 (Caco-2): 18.5 µM
- IC50 (PC-3): 18.5 µM
Compound: CCn1c(-n2cc(/C=N/N=c3\scc(-c4ccc(Br)cc4)n3-c3ccccc3)c(-c3ccccc3)n2)nc2c1c(=O)n(C)c(=O)n2C

- IC50 [5]: 1.7 µM
Compound: CCOc1cc(C)nc2c(C#N)c(Nc3cc(OC)ccn3)nn12
- Activity (Rattus norvegicus): 46%

- IC50 [4]: 26.1 µM
Compound: Cc1ccc(NC(=O)CSc2nnc(C3CCN(C(=O)Nc4ccccc4)CC3)o2)cc1C

- IC50 [6]: 0.12 µM
Compound: CCOC(=O)c1sc(N/N=C/c2ccccc2)nc1C

- IC50 [2]: ≤ 40 µM
Compound: CC(C)(C)Nc1c(-c2cc3ccccc3nc2Cl)nc2sccn12

- IC50 [2]: 4.61 µM
Compound: O=C(Cc1ccccc1Nc1c(Cl)cccc1Cl)N/N=C1\C(=O)N(Cc2ccccc2)c2ccc(Cl)cc21

- IC50 [7]: 124 µM
Compound: COc1ccc(-c2nnc(N/N=C/c3ccc(F)cc3)nc2-c2ccc(OC)cc2)cc1

- IC50 [2]: 11 µM
- IC50 [8]: 0.07 µM
Compound: O=C1N/C(=N\c2nnc(-c3ccc(O)cc3)s2)S/C1=C\c1ccccc1

- IC50 [6]: 0.12 µM
Compound: CCOC(=O)c1sc(N/N=C/c2c(F)cccc2Cl)nc1C

- IC50 [9]: 1.41 µM
Compound: CN(C)c1ccc(/C=C/C(=O)c2cc(-n3cc(CN4C(=O)C(=O)c5ccccc54)nn3)ccc2O)cc1

- IC50 [2]: 6.64 µM
Compound: O=C(Cc1ccccc1Nc1c(Cl)cccc1Cl)N/N=C1\C(=O)N(Cc2ccccc2)c2ccccc21

- IC50 [1]: 0.0064 µM
Compound: COc1ccc2cc(C(C)C(=O)O/N=C(\N)c3ccc(Cl)cc3)ccc2c1 (stereo not given)

- IC50 [9]: 1.41 µM
Compound: COc1ccc(/C=C/C(=O)c2cc(-n3cc(CN4C(=O)C(=O)c5ccccc54)nn3)ccc2O)cc1

- IC50 [4]: 26.1 µM
Compound: Cc1ccc(C)c(NC(=O)CSc2nnc(C3CCN(C(=O)Nc4ccccc4)CC3)o2)c1

- IC50 [9]: 1.41 µM
Compound: O=C(/C=C/c1ccc(Br)cc1)c1cc(-n2cc(CN3C(=O)C(=O)c4ccccc43)nn2)ccc1O

- IC50 [4]: 5.24 µM
Compound: COc1ccc(Cn2cc(COc3ccc(/C=C4\SC(=O)NC4=O)cc3)nn2)cc1

- IC50 [4]: 26.1 µM
Compound: Cc1ccc(NC(=O)CSc2nnc(C3CCN(C(=O)Nc4ccccc4)CC3)o2)c(C)c1
- Activity (Mononuclear cell line): 79.5%

- inhibition [11]: 50%
Compound: COc1ccc(-c2nnc(N/N=C/c3ccc4c(c3)OCO4)nc2-c2ccc(OC)cc2)cc1

- IC50 [1]: 0.00177 µM
Compound: COc1ccc2cc(C(C)C(=O)ON=C(N)c3ccc(-c4ccccc4)c(-c4ccccc4)c3)ccc2c1 (stereo not given)
